In US20070037752A1, “Novel alanyl-amino peptidase inhibitors for functionally influencing different cells and treating immunological, inflammatory, neuronal, and other diseases” (priority 2003, published 2007):
Where two headings read alike, the source gives them in different places. Values belong to the compound of their own block, whether it stands above or below them.

Biological target: alanyl aminopeptidases (APN) (Homo sapiens, UniProt P15144)
Experiment: Inhibition of alanyl aminopeptidase enzymatic activity, fluorogenic substrate (Ala)2-rhodamine 110
Assay type: biochemical
Experimental: The inhibition characteristics measured are referred to as IC-50 values or ID50 values (the latter marked with “*”) for said enzyme. The enzymatic activity was determined by means of the fluorogenic substrate/product (Ala)2-rhodamine 110.

[1] = Table 3, unstarred values, read-out: IC50APN
[2] = Table 4, unstarred values, read-out: IC50APN
[3] = Table 8, unstarred values, read-out: IC50APN
[4] = Table 9, unstarred values, read-out: IC50APN
[5] = Table 9, starred values = ID50, read-out: ID50 APN (values marked with *)

Chain of alanyl aminopeptidases (APN) (P15144 whole entry, species assumed): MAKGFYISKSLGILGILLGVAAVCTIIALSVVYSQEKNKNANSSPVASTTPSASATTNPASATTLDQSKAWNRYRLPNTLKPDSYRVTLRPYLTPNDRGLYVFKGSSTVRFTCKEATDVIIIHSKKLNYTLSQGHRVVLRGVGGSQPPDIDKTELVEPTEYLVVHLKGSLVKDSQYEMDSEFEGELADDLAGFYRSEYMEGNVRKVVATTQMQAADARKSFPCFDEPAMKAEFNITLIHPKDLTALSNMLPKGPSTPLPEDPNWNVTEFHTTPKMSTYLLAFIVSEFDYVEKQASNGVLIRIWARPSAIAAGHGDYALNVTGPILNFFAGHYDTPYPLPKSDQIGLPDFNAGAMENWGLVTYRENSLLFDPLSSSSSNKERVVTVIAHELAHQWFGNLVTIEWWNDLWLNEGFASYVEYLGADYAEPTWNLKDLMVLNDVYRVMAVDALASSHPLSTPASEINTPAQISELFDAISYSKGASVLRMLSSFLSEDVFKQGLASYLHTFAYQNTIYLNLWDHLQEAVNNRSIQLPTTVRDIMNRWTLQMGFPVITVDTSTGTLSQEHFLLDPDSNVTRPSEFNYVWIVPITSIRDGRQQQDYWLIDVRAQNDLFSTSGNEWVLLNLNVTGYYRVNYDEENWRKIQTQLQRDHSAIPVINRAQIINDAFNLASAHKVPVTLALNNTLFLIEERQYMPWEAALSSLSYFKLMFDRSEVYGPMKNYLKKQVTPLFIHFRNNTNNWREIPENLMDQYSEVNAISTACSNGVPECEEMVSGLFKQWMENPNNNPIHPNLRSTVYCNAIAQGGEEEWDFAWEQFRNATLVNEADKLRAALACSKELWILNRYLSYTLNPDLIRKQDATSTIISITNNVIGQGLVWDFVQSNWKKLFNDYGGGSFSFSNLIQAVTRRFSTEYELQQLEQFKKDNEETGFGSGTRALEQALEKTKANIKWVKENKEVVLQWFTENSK

Structure (SMILES): O=C(Nc1ccc(N=Nc2ccccc2)cc1)c1ccc(S(=O)(=O)N2CCCC2)cc1 [A3.122]
- IC50 [1]: 21.6 µM

Structure (SMILES): Cc1ccc(/C=N/NC(=O)c2cc(C)oc2C)o1 [A4.142]
- IC50 [2]: 50.2 µM

Structure (SMILES): C/C(Cn1nnc([N+](=O)[O-])n1)=N/NC(=O)COc1ccccc1[N+](=O)[O-] [A3.010]
- IC50 [1]: 3.4 µM

Structure (SMILES): Cc1ccc(NC(=O)/C(=C\c2ccco2)NC(=O)c2ccc(C)cc2)cc1 [A3.077]
- IC50 [1]: 16.4 µM

Structure (SMILES): CC1=C(C#N)C(=O)N(CCO)C(=O)/C1=C\c1ccc(-c2cc(Cl)ccc2Cl)o1 [A3.003]
- IC50 (Table 3, starred values = ID50, read-out: ID50 APN (values marked with *)): 1.2 µM

Structure (SMILES): Cc1ccc(/C=N/NC(=O)COc2cccc(Cl)c2)o1 [A4.153]
- IC50 [2]: 62.7 µM

Structure (SMILES): CC(C)CC1CC(=S)C(C2CCCCC2)C1=O (stereo not shown) [A8.007]
- IC50 [3]: 8 µM

Structure (SMILES): Cc1ccc(/C=N/NC(=O)c2ccc(F)cc2)o1 [A3.207]
- IC50 [1]: 34.4 µM

Structure (SMILES): O=C(N/N=C/c1ccco1)c1ccc(NCc2ccccc2)cc1 [A4.184]
- IC50 (Table 4, starred values = ID50, read-out: ID50 APN (values marked with *)): 294 µM

Structure (SMILES): CC1CCN(S(=O)(=O)c2ccc3c(c2)C(Cl)(Cl)C(=O)N3)CC1 [A6.015]
- IC50 (Table 6, read-out: IC50APN): 37.2 µM

Structure (SMILES): O=C(N/C(=C\c1ccco1)C(=O)N1CCC(O)CC1)c1ccccc1 [A9.051]
- IC50 [4]: 21.1 µM

Structure (SMILES): C/C(=N\NC(=O)c1cc(-c2ccccc2)n[nH]1)c1ccco1 [A4.149]
- IC50 [2]: 58.3 µM

Structure (SMILES): O=C(N/N=C/c1cc(Cl)cc([N+](=O)[O-])c1O)c1ccccc1O [A4.005]
- IC50 [2]: 5.8 µM

Structure (SMILES): CCCCOC(=O)c1cccc(-c2ccc(/C=C3\C(=O)N(CCO)C(=O)C(C#N)=C3C)o2)c1 [A9.021]
- IC50 [5]: 10.2 µM

Structure (SMILES): COc1ccc(OC)c(-c2cc(C(=O)N/N=C/c3ccco3)[nH]n2)c1 [A4.127]
- IC50 [2]: 43.2 µM

Structure (SMILES): O=C(CNC(=O)c1ccccc1Br)N/N=C/c1ccoc1 [A4.101]
- IC50 [2]: 31.9 µM

Structure (SMILES): COc1ccc(/C=C(/NC(=O)c2ccccc2)C(=O)N/N=C\C=C\c2ccc(C)o2)cc1OC [A3.081]
- IC50 [1]: 16.7 µM

Structure (SMILES): CC(C)(C)OC(=O)N/N=C\C=C\c1ccco1 [A8.008]
- IC50 [3]: 10.8 µM

Structure (SMILES): Nc1nc2nc(-c3ccco3)cc(C(F)(F)F)n2n1 [A3.195]
- IC50 [1]: 32.1 µM

Structure (SMILES): CC1=NNC(=O)C1CCC(=O)N/N=C\C=C\c1ccco1 (stereo not shown) [A3.138]
- IC50 [1]: 23 µM

Structure (SMILES): Cc1ccccc1C(=O)Nc1ccc(C(=O)N/N=C/c2ccco2)cc1 [A3.246]
- IC50 [1]: 45.4 µM

Structure (SMILES): O=C(Nc1ccccc1C(=O)N/N=C/c1ccco1)c1ccc(Cl)cc1Cl [A3.092]
- IC50 [1]: 18.7 µM

Structure (SMILES): O=C(/C=C/c1ccco1)Nc1ccc(C(=O)O)cc1 [A3.033]
- IC50 [1]: 8.4 µM

Structure (SMILES): C/C(=N\NC(=O)CNC(=O)/C=C/c1ccco1)c1ccc2ccccc2c1 [A4.019]
- IC50 [2]: 12 µM

Structure (SMILES): Cc1ccc(C(=O)N/C(=C\c2ccco2)C(=O)N2CC3CC(C2)c2cccc(=O)n2C3)cc1 (stereo not shown) [A3.042]
- IC50 [1]: 11 µM

Structure (SMILES): O=C(Cc1cccs1)N/N=C\c1ccco1 [A3.329]
- IC50 [1]: 143 µM

Structure (SMILES): CSc1nnc2n(/N=C/c3ccco3)cnn12 [A3.213]
- IC50 [1]: 34.7 µM

Structure (SMILES): Cc1ccc(/C=N/NC(=O)c2cccc(NC(=O)c3ccccc3C)c2)o1 [A3.093]
- IC50 [1]: 18.9 µM

Structure (SMILES): Cc1ccc(/C=N/NC(=O)c2ccccc2OCc2ccccc2)o1 [A3.090]
- IC50 [1]: 18.4 µM

Structure (SMILES): Cc1ccc(/C=N/NC(=O)c2cc(C)oc2C)o1 [A3.263]
- IC50 [1]: 50.2 µM

Structure (SMILES): Cc1ccc(/C=N/NC(=O)c2ccccc2Cl)o1 [A3.084]
- IC50 [1]: 17.7 µM

Structure (SMILES): CC(=O)Nc1ccc(C(=O)N/N=C/c2ccc(C)o2)cc1 [A4.095]
- IC50 [2]: 29.7 µM

Next, values leading:

- IC50 (Table 13, read-out: IC50APN): 125 µM
Structure (SMILES): CC1=C(C#N)C(=O)N(CCO)C(=O)/C1=C\c1ccc(-c2ccc(C)c(Cl)c2)o1 [A13.024]

- IC50 (Table 12, read-out: IC50APN): 8.6 µM
Structure (SMILES): C/C(=N/O)c1ccc2c(c1)OCCOCCOc1cc(/C(C)=N\O)ccc1OCCOCCO2 [A12.017]

- IC50 (Table 13, read-out: IC50APN): 20 µM
Structure (SMILES): CCCOc1[nH]c(/N=C/c2ccccc2)c(C#N)c1C#N [A13.010]

- IC50 [4]: 30.3 µM
Structure (SMILES): CC1=C(C#N)C(=O)N=C(O)/C1=C\c1ccc(-c2ccc(Cl)cc2Cl)o1 [A9.080]

- IC50 (Table 13, read-out: IC50APN): 18.2 µM
Structure (SMILES): CC(=O)c1cccc(-c2ccc(/C=C3/C(=O)N(CCCO)C(=O)C(C#N)=C3C)o2)c1 [A13.009]

- IC50 [4]: 93.6 µM
Structure (SMILES): CC1(C)CC(CC/N=C/c2ccccc2)(Cc2ccccc2)CCO1 (stereo not shown) [A9.116]

- IC50 (Table 12, read-out: IC50APN): 21.8 µM
Structure (SMILES): O=C(CCOC(c1ccc(F)cc1)c1ccc(F)cc1)NO [A12.041]

- IC50 [4]: 33.9 µM
Structure (SMILES): Cc1ccccc1NC(=O)C1C(c2cccs2)C(C#N)=C(SCC(=O)Nc2ccc(Br)cc2)NC1(C)O (stereo not shown) [A9.087]

- IC50 (Table 13, read-out: IC50APN): 16 µM
Structure (SMILES): CC1=C(C#N)C(=O)N(CCCO)C(=O)/C1=C\c1ccc(-c2ccc(Br)cc2)o1 [A13.007]

- IC50 (Table 10, read-out: IC50APN): 8.6 µM
Structure (SMILES): C/C(=N/O)c1ccc2c(c1)OCCOCCOc1cc(/C(C)=N\O)ccc1OCCOCCO2 [A10.004]

- IC50 [4]: 26.9 µM
Structure (SMILES): O=C(NC(Sc1ccncn1)C(=O)c1ccccc1)c1ccccc1 (stereo not shown) [A9.068]

- IC50 [4]: 34.5 µM
Structure (SMILES): CCOC(=O)C1CCN(C(=O)/C(=C/c2ccco2)NC(=O)c2ccc(C)c(C)c2)CC1 [A9.089]

- IC50 [5]: 186 µM
Structure (SMILES): CCCOC(=O)C(NC(=O)c1ccccc1)(N1CCOCC1)C(F)(F)F (stereo not shown) [A9.125]

- IC50 [5]: 55 µM
Structure (SMILES): Cc1ccc(/C=C(\NC(=O)c2ccccc2)C(=O)NCCN2CCOCC2)o1 [A9.103]
